The record followed here is patent publication US20260256751A1, “COMBINATION OF BETA-2-ADRENERGIC RECEPTOR AGONISTS AND GLP-1 RECEPTOR AGONISTS FOR USE IN TREATING HYPERGLYCAEMIA” (ATROGI AB, priority 2023, published 2026).

Experiment [1] relates to differentiated L6-myotubes. Put plainly: Glucose uptake screen (Biological example 1 of WO 2019/053427). The format is cell-based. Particulars: compound at 10 μM, activity relative to isoproterenol at 10 μM, read-out: Biological example 1 of WO 2019/053427 (GU). An outline of the steps:
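Rat L6 myoblasts were differentiated into myotubes over 7 days in 2% FBS, then serum-starved overnight. Cells were stimulated with 1×10^−5 M compound plus β2 antagonist ICI-118551 for 1 h 40 min and re-dosed for 20 min in glucose-free medium. Uptake of 50 nM ^3H-2-deoxyglucose over 10 min was counted after NaOH lysis.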

Experiment [2] concerns differentiated L6-myotubes. Put plainly: cAMP production relative to isoprenaline (Biological example 2 of WO 2019/053427). Type of experiment: cell-based. Particulars: 0.25 h, compound at 10 μM, activity relative to isoproterenol at 10 μM. Put shortly: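 Differentiated L6 myotubes stimulated 15 min with test compound or isoprenaline, each at final 1×10^−5 M, in HBSS with 1% BSA, 5 mM HEPES, 1 mM IBMX, pH 7.4. cAMP production by the compound expressed relative to that induced by the same concentration of isoprenaline.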

`CCCCNC[C@H](O)c1cnc(N)nc1` [Compound 89, (R)-1-(2-amino-5-pyrimidinyl)-2-(butylamino)-1-ethanol]: the Emax at 10 µM in experiment [1] was 50 to 75%; in experiment [2], less than 25%.
For `CCCCNC[C@H](O)c1cccc(N)c1F` [Compound 90, (R)-1-(3-amino-2-fluorophenyl)-2-(butylamino)-1-ethanol], the Emax at 10 µM was 50 to 75% in experiment [1] and less than 25% in experiment [2].
As to `CC(C)(C)NC[C@H](O)c1cccc(N)c1F` [Compound 91, (R)-1-(3-amino-2-fluorophenyl)-2-(tert-butylamino)-1-ethanol], the Emax at 10 µM in experiment [1] was greater than 75%; in experiment [2], 25 to 50%.
For the compound `CCC[C@H]1CCC[C@H]([C@H](O)c2ccc(F)cc2)N1` [Compound 92, (R)-[(2R,6S)-6-propyl-2-piperidyl](p-fluorophenyl)methanol], the Emax at 10 µM in experiment [1] was 25 to 50%; in experiment [2] it was less than 25%.
As to `CCC[C@H]1CCC[C@H]([C@H](O)c2ccccc2F)N1` [Compound 93, (R)-[(2R,6S)-6-propyl-2-piperidyl](o-fluorophenyl)methanol], the Emax at 10 µM in experiment [1] is 25 to 50%; in experiment [2] it was less than 25%.
Take `CCC[C@@H]1CCC[C@H]([C@H](O)c2ccc(F)cc2)N1` [Compound 94, (R)-[(2R,6R)-6-propyl-2-piperidyl](p-fluorophenyl)methanol]: the values for the Emax at 10 µM in experiment [1] and in experiment [2] were 50 to 75% and less than 25%, respectively.
The matching figures for `CC(C)(C)NC[C@H](O)c1ccc(O)cn1` [Compound 95, 6-[(S)-2-(tert-butylamino)-1-hydroxyethyl]-3-pyridinol]: 50 to 75% and less than 25%.
The matching figures for `CC(C)(C)NC[C@H](O)c1ccc(F)cn1` [Compound 96, (S)-2-(tert-butylamino)-1-(5-fluoro-2-pyridyl)-1-ethanol]: 50 to 75% and less than 25%.
The matching figures for `CCC[C@@H]1CCC[C@H]([C@H](O)c2ccccc2F)N1` [Compound 97, (R)-[(2R,6R)-6-propyl-2-piperidyl](o-fluorophenyl)methanol]: 50 to 75% and less than 25%.
For the compound `Cn1ccc([C@@H](O)CNC(C)(C)C)cc1=O` [Compound 98, 4-[(R)-2-(tert-butylamino)-1-hydroxyethyl]-1-methyl-2(1H)-pyridinone], the Emax at 10 µM in experiment [1] is greater than 75%; in experiment [2], less than 25%.
For `CC(C)(C)NC[C@H](O)c1cncc(F)c1` [Compound 99, (R)-2-(tert-butylamino)-1-(5-fluoro-3-pyridyl)-1-ethanol] the same measures were greater than 75% and 25 to 50%.
Regarding `CC(C)(C)NC[C@H](O)c1cncc(O)c1` [Compound 100, 5-[(R)-2-(tert-butylamino)-1-hydroxyethyl]-3-pyridinol], the figures for the Emax at 10 µM in experiment [1] and in experiment [2] were greater than 75% and less than 25%, respectively.
For `CC1(C)CCC[C@H]([C@@H](O)c2cccc(F)c2)N1` [Compound 101, (S)-[(R)-6,6-dimethyl-2-piperidyl](m-fluorophenyl)methanol] the same measures were 25 to 50% and less than 25%.
For `CC1(C)CCC[C@H]([C@H](O)c2cccc(F)c2)N1` [Compound 102, (R)-[(R)-6,6-dimethyl-2-piperidyl](m-fluorophenyl)methanol] the same measures were 50 to 75% and less than 25%.
`CC1(C)CCC[C@H]([C@@H](O)c2cccc(O)c2)N1` [Compound 103, (S)-[(R)-6,6-dimethyl-2-piperidyl](m-hydroxyphenyl)methanol]: the results for the Emax at 10 µM in experiment [1] and in experiment [2] were 25 to 50% and less than 25%, respectively.
As to `CC1(C)CCC[C@H]([C@H](O)c2cccc(O)c2)N1` [Compound 104, (R)-[(R)-6,6-dimethyl-2-piperidyl](m-hydroxyphenyl)methanol], the Emax at 10 µM is 25 to 50% in experiment [1] and less than 25% in experiment [2].
